Results taken from patent EP0499926B1, “2-Substituted quinolines, process for their preparation as well as their use in medicaments” (BAYER AG, priority 1991, dated 1992).

System: 5-LO
Assay: Lipoxygenase inhibition: release of leukotriene B4 (LTB4) from human polymorphonuclear leukocytes (PMN) after addition of substance and Ca ionophore, reverse phase HPLC
Type: cell-based
Settings: polymorphkernige Humanleukozyten (PMN), Ca-Ionophor
Excerpt: Die pharmakologischen Wirkungen der erfindungsgemäßen Substanzen werden durch folgende Methode bestimmt:
Als Maß für die Lipoxyenase-Hemmung wurde die Freisetzung von Leukotrien B4 (LTB4) an polymorphkernigen Humanleukozyten (PMN) nach Zugabe von Substanzen und Ca-Ionophor mittels reverse phase HPLC nach Borgeat, P. et al., Proc. Nat. Acad. Sci, 76, 2148 -2152 (1979), bestimmt.
In der Tabelle 1 sind beispielhaft die nach diesem Test erzielten Werte einiger erfindungsgemäßer Verbindungen aufgeführt: Tabelle 1

IC50 [nM]	Compound
2500	COC(=O)C(c1ccc(OCc2ccc3ccccc3n2)c(F)c1)C1CCCC1 (stereo not shown) [Beispiel 1, 2-[3-Fluor4-(chinolin-2-methoxy)phenyl]-2-cyclopentylessigsäuremethylester]
690	O=C(O)C(c1ccc(OCc2ccc3ccccc3n2)c(F)c1)C1CCCC1 (stereo not shown) [Beispiel 27, 2-[3-Fluor-4-(chinolin-2-yl-methoxy)phenyl]-2-cyclopentylessigsäure]
790	O=C(O)C(c1ccc(OCc2ccc3ccccc3n2)c(-n2cccc2)c1)C1CCCCCC1 (stereo not shown) [Beispiel 40]
560	C=Cc1cc(C(C(=O)O)C2CCCC2)ccc1OCc1ccc2ccccc2n1 (stereo not shown) [Beispiel 41]
